# Reference: patent publication US11339191B2, “Stapled peptides and uses thereof” (Universite de Montpellier, priority 2016, dated 2022)
# Bridge positions count the residues as written; N and C are the ends. Square brackets hold non-standard residues; d marks the D form. S5 = C=CCCC[C@](C)(N)C(=O)O; Nle = CCCC[C@H](N)C(=O)O
# Columns and labels:
# Format in all cases: cell-based, human
# [1] = system: IL-6; assay: LPS-stimulated THP-1 monocytes, IL-6 in culture supernatant by ELISA; conditions: for IL-6 expression compared with the S1 peptide: curative condition; for efficacy on IL-6 compared with the IRAK2 peptide (IRAK2-S1): 10 to 20 μM; for effect on the expression level of IL-6: curative condition (peptide 6 hours after LPS), 1 to 20 μM
# Method: (§1) THP1 cells were cultured (300 000 cells/well) in RPMI 1640 supplemented with 10% fetal calf serum, 1% penicillin/streptomycin and L-glutamine. The cells were treated with 0.1 μg/ml LPS for 6 h for TNFα, and 24 h for IL-6 and IL-1β. The peptides were solubilized in 4% DMSO and used at 5 and 20 μM. The peptides were added at the same time as the LPS. The determination of the cytokines in the culture supernatants was carried out with the specific ELISA kits (eBioscience).
# (§2) For all conditions tested, THP-1 monocytes were cultured (300 000 cells/well) in RPMI with 10% fetal calf serum; 1% penicillin/streptomycin and L-glutamine. THP-1 were treated with 0.1 μg/mL of LPS for 24 hours, stapled-peptides IRAK2-S1 et IRAKM-S1 were used at 1 to 20 μM and added at the same time for condition A, 6 hours before LPS for condition B and 6 hours after LPS for condition C. The quantification of cytokine in the culture supernatants was carried out with specific IL-6 and TNFα ELISA (eBioscience).
# (§3) For all conditions tested, THP-1 monocytes were cultured (300 000 cells/well) in RPMI with 10% fetal calf serum; 1% penicillin/streptomycin and L-glutamine. THP-1 were treated with 0.1 μg/mL of LPS for 24 hours, stapled-peptides IRAK2-S1, IRAK2-JMV6649, IRAKM-S1 and IRAKM-JMV6650 were used at 10 to 20 μM and added at the same time for «Simultaneous» condition, 6 hours before LPS for «preventive» condition and 6 hours after LPS for «curative» condition. Using ELISA (eBioscience), IL-6 and TNFα quantification was carried out in monocyte culture supernatants.
# [2] = system: TNFα; assay: LPS-stimulated THP-1 monocytes, TNFα in culture supernatant by ELISA
# Method: as §1, §2, §3
# [3] = system: CHOP, BIP and GRP94 genes; assay: Tunicamycin-induced ER stress in THP-1 cells, expression of the CHOP, BIP and GRP94 genes by RT-qPCR; conditions: THP-1, tunicamycin 0.1 μg/ml
# Method: To assess the specificity of recognition of stapled peptides IRAK2, we induced ER stress in human monocytic cell line THP-1 by treatment with tunicamycin (0.1 μg/ml) for 8 h and 24 h.
# THP-1 cells were cultured (300 000 cells/well) in RPMI 1640 supplemented with 10% fetal calf serum, 1% penicillin/streptomycin and L-glutamine. The cells were treated with 0.1 μg/ml tunicamycin for 30 min, 8 H or 24 H. The peptide was solubilized in 4% DMSO and used at concentrations ranging from 1 to 20 μM. Total cell RNAs were extracted with the miRNeasy kit (Qiagen), the expression levels of the genes were measured by RT-qPCR with Taqman assays (Lifetechnology) technology.
# We have shown that IRAK2 is the main kinase expressed at 8 h, compared to IRAK1 (FIG. 3A). Measurement of the expression of the CHOP, BIP and GRP94 genes validated the activation of the ER stress at 8H as expected according to literature (FIG. 3B). In this study the peptides IRAK2 Li, IRAKM Li, IRAK2 S1, IRAK2 S2 (Li for linear peptide and S1 and S2 for stapled peptide) were tested. […] This inhibition was specific since, stapled peptide concentration of 20 μM, control stapled peptide (Mock S) has no effect (FIG. 3D).
# [4] = system: IL-1β; assay: PMA-induced macrophage differentiation of THP-1 monocytes, IL-1β RNA (RT-qPCR) and secretion (ELISA); conditions: THP-1, PMA 0.1 μg/ml 48 h, peptide 20 μM
# Method: (§4) We stimulated the THP-1 monocytes with 0.1 μg/ml PMA for 48 h to induce differentiation into macrophages, and treated with 20 μM stapled peptide (IRAK2-S1 or Mock-S).
# (§5) THP1 cells were cultured (300,000 cells/well) in RPMI 1640 supplemented with 10% fetal calf serum, 1% penicillin/streptomycin and L-glutamine. The cells were treated with 0.1 μg/ml of PMA for 48 h. The peptides were solubilized in 4% DMSO and used at 20 μM. The peptides are added together with the PMA. Total RNA of the cells were extracted by the miRNeasy kit (Qiagen), the level of expression of IL-1β was measured by RT-qPCR technology by Taqman assays (lifetechnology)
# (§6) After extraction of the RNAs, we quantified by RT-qPCR the level of expression of the RNA of IL-1β (FIG. 4A). Using ELISA method, the cytokine secretion was measured in the supernatant of the treated THP-1 (FIG. 4B). The IRAK2-S1 peptide was able to block the expression and production of IL-1β at 20 μM. At this concentration, the peptide appears to have no effect on viability and morphology of the cells.
# [5] = system: IL-1β; assay: LPS-stimulated THP-1 monocytes, IL-1β in culture supernatant by ELISA; conditions: THP1, LPS 0.1 μg/ml 24 h, peptide 5 and 20 μM added at the same time as LPS
# Method: as §1
# [6] = system: THP-1 cells; assay: Viability and morphology of PMA-treated THP-1 cells with peptide; conditions: THP-1, peptide 20 μM
# Method: as §4, §5, §6
# [7] = preventive condition (peptide 6 hours before LPS), 10 μM
# [8] = preventive condition (peptide 6 hours before LPS), 20 μM
# [9] = simultaneous condition, LPS 0.1 μg/mL 24 h, peptide 10 and 20 μM
# [10] = curative condition (peptide 6 hours after LPS), 10 μM
# [11] = curative condition (peptide 6 hours after LPS), 20 μM
# [12] = simultaneous condition, peptide 20 μM
substance,measurement,setting,value
Ac-VSI-S5-REL-S5-WWWGBRQATV-NH2 (Ac-VSI[S5]REL[S5]WWWG[Nle]RQATV-NH2; staple 4-8; SMILES CCCC[C@H](NC(=O)CNC(=O)[C@H](Cc1c[nH]c2ccccc12)NC(=O)[C@H](Cc1c[nH]c2ccccc12)NC(=O)[C@H](Cc1c[nH]c2ccccc12)NC(=O)[C@]1(C)CCCC=CCCC[C@](C)(NC(=O)[C@@H](NC(=O)[C@H](CO)NC(=O)[C@@H](NC(C)=O)C(C)C)[C@@H](C)CC)C(=O)N[C@@H](CCCNC(=N)N)C(=O)N[C@@H](CCC(=O)O)C(=O)N[C@@H](CC(C)C)C(=O)N1)C(=O)N[C@@H](CCCNC(=N)N)C(=O)N[C@@H](CCC(N)=O)C(=O)N[C@@H](C)C(=O)N[C@H](C(=O)N[C@H](C(N)=O)C(C)C)[C@@H](C)O) [IRAK2-JMV6650],IL-6 expression compared with the S1 peptide,[1]; 20 μM,acts as IRAK2-S1
same,efficacy on IL-6 compared with the IRAK2 peptide (IRAK2-S1),"[1]; preventive condition, data not shown",No more efficacy
same,efficacy on IL-6 compared with the IRAK2 peptide (IRAK2-S1),[1]; simultaneous condition,No more efficacy
same,additional inhibition of TNFα production compared with the S1 peptide,"[2]; curative condition, 10 to 20 μM",not significant
same,efficacy on TNFα compared with the IRAK2 peptide (IRAK2-S1),"[2]; preventive condition, 10 to 20 μM, data not shown",No more efficacy
same,efficacy on TNFα compared with the IRAK2 peptide (IRAK2-S1),"[2]; simultaneous condition, 10 to 20 μM",No more efficacy
Ac-KSG-S5-REL-S5-WSWAQKNKTI-NH2 (Ac-KSG[S5]REL[S5]WSWAQKNKTI-NH2; staple 4-8; SMILES CC[C@H](C)[C@H](NC(=O)[C@@H](NC(=O)[C@H](CCCCN)NC(=O)[C@H](CC(N)=O)NC(=O)[C@H](CCCCN)NC(=O)[C@H](CCC(N)=O)NC(=O)[C@H](C)NC(=O)[C@H](Cc1c[nH]c2ccccc12)NC(=O)[C@H](CO)NC(=O)[C@H](Cc1c[nH]c2ccccc12)NC(=O)[C@]1(C)CCCC=CCCC[C@](C)(NC(=O)CNC(=O)[C@H](CO)NC(=O)[C@H](CCCCN)NC(C)=O)C(=O)N[C@@H](CCCNC(=N)N)C(=O)N[C@@H](CCC(=O)O)C(=O)N[C@@H](CC(C)C)C(=O)N1)[C@@H](C)O)C(N)=O) [IRAKM-JMV6649],IL-6 expression compared with the S1 peptide,[1]; 20 μM,not significant
same,additional inhibition of IL-6 expression compared with IRAKM-S1,"[1]; preventive condition, 10 μM",60%
same,additional inhibition of IL-6 expression compared with IRAKM-S1,"[1]; preventive condition, 20 μM",80%
same,decrease of IL-6 secretion compared with IRAKM-S1,"[1]; simultaneous condition, 20 μM",more than 70%
same,increase of inhibition of TNFα expression compared with IRAKM-S1,"[2]; curative condition, 20 μM",not significant
same,greater inhibition of TNFα expression compared with IRAKM-S1,"[2]; preventive condition, 10 μM",20%
same,additive inhibitory effect on TNFα expression compared with IRAKM-S1,"[2]; simultaneous condition, 20 μM",no additive inhibitory effect
Ac-S5-REL-S5-WWWGBRQA-NH2 (Ac-[S5]REL[S5]WWWG[Nle]RQA-NH2; staple 1-5; SMILES CCCC[C@H](NC(=O)CNC(=O)[C@H](Cc1c[nH]c2ccccc12)NC(=O)[C@H](Cc1c[nH]c2ccccc12)NC(=O)[C@H](Cc1c[nH]c2ccccc12)NC(=O)[C@]1(C)CCCC=CCCC[C@](C)(NC(C)=O)C(=O)N[C@@H](CCCNC(=N)N)C(=O)N[C@@H](CCC(=O)O)C(=O)N[C@@H](CC(C)C)C(=O)N1)C(=O)N[C@@H](CCCNC(=N)N)C(=O)N[C@@H](CCC(N)=O)C(=O)N[C@@H](C)C(N)=O) [IRAK2-S1],IL-6 secreted after LPS stimulation,"[1]; THP1, LPS 0.1 μg/ml 24 h, peptide 5 and 20 μM added at the same time as LPS",reduced the expression of the 3 cytokines in a dose-dependent manner
same,effect on the expression level of IL-6,[1],no effect
same,inhibition of IL-6 expression,[1]; [7],No inhibition
same,inhibition of IL-6 secretion,[1]; [8],15 to 20%
same,inhibition of IL-6 secretion,[1]; [9],significantly inhibit
same,"expression of CHOP, GRP94 and BIP (ER stress)","[3]; simultaneous treatment, peptide 1 to 20 μM, RT-qPCR",blocked in a dose-dependent manner
same,production of IL-1β in supernatant,[4]; ELISA,able to block
same,expression of IL-1β RNA,[4]; RT-qPCR,able to block
same,IL-1β secreted after LPS stimulation,[5],reduced the expression of the 3 cytokines in a dose-dependent manner
same,effect on viability and morphology of the cells,[6],no effect
same,TNFα secreted after LPS stimulation,"[2]; THP1, LPS 0.1 μg/ml 6 h, peptide 5 and 20 μM added at the same time as LPS",reduced the expression of the 3 cytokines in a dose-dependent manner
same,inhibition of TNFα secretion,[2]; [10],≤ 30%
same,inhibition of TNFα secretion,[2]; [11],≤ 70%
same,inhibition of TNFα expression,[2]; [7],No inhibition
same,inhibition of TNFα secretion,[2]; [8],15 to 20%
same,inhibition of TNFα secretion,[2]; [9],significantly inhibit
Ac-KSG-S5-REL-S5-WSWAQK-NH2 (Ac-KSG[S5]REL[S5]WSWAQK-NH2; staple 4-8; SMILES CC(=O)N[C@@H](CCCCN)C(=O)N[C@@H](CO)C(=O)NCC(=O)N[C@@]1(C)CCCC=CCCC[C@@](C)(C(=O)N[C@@H](Cc2c[nH]c3ccccc23)C(=O)N[C@@H](CO)C(=O)N[C@@H](Cc2c[nH]c3ccccc23)C(=O)N[C@@H](C)C(=O)N[C@@H](CCC(N)=O)C(=O)N[C@@H](CCCCN)C(N)=O)NC(=O)[C@H](CC(C)C)NC(=O)[C@H](CCC(=O)O)NC(=O)[C@H](CCCNC(=N)N)NC1=O) [IRAKM-S1],effect on the expression level of IL-6,[1],no effect
same,inhibition of IL-6 secretion,[1]; [8],90%
same,inhibition of IL-6 secretion,[1]; [9],significantly inhibit
same,inhibition of IL-6 expression,[1]; [12],≤ 90%
same,inhibition of TNFα secretion,[2]; [10],No inhibition
same,inhibition of TNFα secretion,[2]; [11],15 to 20%
same,inhibition of TNFα secretion,[2]; [8],95%
same,inhibition of TNFα secretion,[2]; [9],significantly inhibit
same,inhibition of TNFα expression,[2]; [12],up to 95%
"Ac-ITF-S5-NLL-S5-YYGP-NH2 (Ac-ITF[S5]NLL[S5]YYGP-NH2; staple 4-8; SMILES CC[C@H](C)[C@H](NC(C)=O)C(=O)N[C@H](C(=O)N[C@@H](Cc1ccccc1)C(=O)N[C@@]1(C)CCCC=CCCC[C@@](C)(C(=O)N[C@@H](Cc2ccc(O)cc2)C(=O)N[C@@H](Cc2ccc(O)cc2)C(=O)NCC(=O)N2CCC[C@H]2C(N)=O)NC(=O)[C@H](CC(C)C)NC(=O)[C@H](CC(C)C)NC(=O)[C@H](CC(N)=O)NC1=O)[C@@H](C)O) [Mock-S, reference compound]",inhibition of IL-6 expression,[1]; [12],15 to 20%
same,expression of ER stress genes (specificity control),[3]; peptide 20 μM,no effect
same,inhibition of TNFα expression,[2]; [12],15 to 20%
